# Experimental data reported in PMC12055592, “Post-symptomatic NLRP3 inhibition rescues cognitive impairment and mitigates amyloid and tau driven neurodegeneration” (Npj Dementia, 2025).
# What was measured:
# 5XFAD/Rubicon KO mice = experiment: Immunoblotting of NeuN and MAP2 in cortical and hippocampal lysates of 5XFAD/Rubicon KO mice; type: in vivo, mouse; details: 20 mg/kg vs vehicle, not statistically significant
# Method: 5XFAD/Rubicon KO mice received vehicle (0.5% w/v methylcellulose/0.1% w/v Tween® 80 in water) or VEN-02XX (0.01, 1, or 20 mg/kg) every day by oral gastric gavage for 9 weeks.
# Ten ug of protein was separated by gel electrophoresis (one gel loaded with cortex samples and one gel loaded with hippocampus samples), on a 4–15% gradient Tris-glycine gel and transferred to PVDF membranes using the TransBlot Turbo semi-dry transfer system (Bio-Rad Laboratories, Hercules, CA). The membranes were blocked in Tris-buffered saline, 0.1% Tween 20 (1X TBST) with 5% milk for 1 h at room temperature followed by overnight incubation at 4 °C with primary antibodies (1:1000 rabbit anti-NeuN [EMD Millipore, Burlington, MA] and 1:10,000 rabbit anti-Vinculin [Cell Signaling, Boston, MA]) diluted in TBST with 1% milk. For the complete list of antibodies please reference Supplementary Table 2. The next day, membranes were washed three times with 1XTBST for 10 min before incubation with HRP-conjugated secondary antibody (1:500 goat anti-rabbit [Cedarlane Labs, Burlington, ON]) for 90 min at room temperature. Membranes were then washed three times with 1XTBST for 10 min and developed with Pierce ECL western blotting substrate (Thermo Fisher Scientific) and visualized on a ChemiDoc imaging system (Bio-Rad Laboratories). […]
# NLRP1 = NLRP1 in vitro selectivity assay (Normal Human Epidermal Keratinocytes, Val-boroPro, IL-1β); type: cell-based; details: n = 2; top concentration 50 µM
# Method: Normal Human Epidermal Keratinocytes pooled from juvenile donors (PromoCell, Heidelberg, Germany) were cultured in Keratinocyte Growth Medium 2 (PromoCell). Cells were seeded at 12,000 cells/well in a 96-well cell culture plate and incubated for 16 h at 37 °C with 5% CO2. The next day, the media was replaced with fresh media, and cells were pre-incubated for 60 min with VEN-02XX (top concentration 50 µM; 5-fold titration) before the addition of Val-boroPro mesylate (MedChemExpress, Monmouth Junction, NJ) at a final concentration of 7.5 µM. After a 30-h incubation at 37 °C with 5% CO2, supernatants were collected and IL-1β levels were determined in an electrochemiluminescence immunoassay (Mesoscale Discovery).
# [1] = Mouse pharmacokinetic study, 7 days oral dosing, blood; type: in vivo; details: WT mice
# Method: Male C57Bl/6 mice (weight 20–30 g, age 6–8 weeks old) were obtained from Charles River Laboratories Canada, and acclimated for 5 days before the study. Three animals were dosed by oral gavage during 7 days with 20 mg/kg of VEN-02XX suspended in 0.5% w/v methylcellulose/0.2% w/v Tween 80, at a dose volume of 10 mL/kg. Food and water were available ad libitum to all animals. On day 7, serial blood samples were collected from a tail snip at 0.25, 0.5, 1, 2, 4, 6, and 24 h post-dose, and […] of blood was added to a micro tube racked system pre-filled with […] of 10 mM sodium citrate buffer (final blood/buffer ratio 1:3, or dilution factor of 4). The plate was stored at −20 °C until LC-MS/MS analysis.
# Concentrations of VEN-02XX in plasma and brain were determined by a LC-MS/MS assay. The plasma samples were thawed at room temperature and 20 μL aliquot of each sample was added to a 1.2 mL deep 96-well plate containing 20 µL ACN. The standard curve was prepared by making different dilutions in ACN. A 20 µL standard solution at each concentration was added into a 96-deepwell plate, followed by addition of 20 µL blank plasma or brain homogenate. Then, 200 μL of an internal standard mixture (5 ng/mL Glyburide and Loperamide in ACN) was added to each sample. The plates were vortexed and centrifuged at 4000 rpm for 10 min at 4 °C; 70 μL of the supernatant was diluted with 140 μL of water, and 10 μL of the solution was injected onto an analytical column. A Shimadzu UPLC system coupled with a SCIEX 4500 mass spectrometer (AB Sciex, Foster City, CA) was used for sample analysis. The mobile phase A was 0.1% FA in water and mobile phase B was 0.1% FA in 1/5 IPA/ACN. The gradient started at 10% B, held for 0.2 min and increased to 95% B in 1.3 min, maintained at 95% B for 0.7 min, and then decreased to 10% B within 0.01 min. The total flow rate was 0.5 mL/min, and samples were injected onto an Acquity UPLC BEH C18 (2.1 mm × 5 cm, 2.3 u) analytical column with a total run time of 2.5 min. Data were acquired using multiple reactions monitoring (MRM) in positive ion electrospray mode with an operating source temperature of 400 °C. Two transitions were monitored for VEN-02XX and the more sensitive transition with less interference (397.1 –> 270.1) was used for quantification.
# Pharmacokinetic parameters were determined by non-compartmental analysis using WinNonLin software (Phoenix^TM, version 8.3), and the following parameters were calculated from the plasma concentrations versus time data: T1/2, Cmax, Tmax, AUCinf, AUClast. When appropriate, the brain Kp was calculated as AUClast(brain)/AUClast(plasma). Free brain partition coefficient (Kpuu) was calculated using the free fraction in plasma and brain measured in a high throughput equilibrium dialysis assay.
# [2] = male, C57Bl/6, mouse, whole blood, blood, 20 mg/kg PO QD for seven days
smiles,measurement,setting,value
CC(C)(O)CNc1nnc(-c2ccc(Cl)cc2C(F)(F)F)c2ccncc12 [VEN-02XX],"MAP2 expression (immunoblot, normalized to vinculin)",5XFAD/Rubicon KO mice,improved MAP2 levels
same,"NeuN protein expression (immunoblot, normalized to vinculin)",5XFAD/Rubicon KO mice,consistent improvements in overall NeuN protein expression
same,block of IL-1β release downstream of NLRP1,NLRP1,inability to block IL-1β release
same,NLRP3 inhibitory activity maintained by exposure,"[1]; 20 mg/kg PO once daily, 7 days",sufficient to maintain a 50% inhibitory activity of NLRP3 throughout the dosing schedule
same,AUC(0-inf),[1]; [2],143 µM·h
same,Cmax,[1]; [2],20.7 µM
same,Tmax,[1]; [2],1 h
same,half-life,[1]; [2],3.16 h
